Where two headings read alike, the source gives them in different places.
What was measured:
[1] = target: T1, ganglia-type receptors (Rattus norvegicus, UniProt P04757+P12392); assay: Determination of interaction with ganglion receptors; type: biochemical; settings: percentage of the maximal activation induced by (S)-(-)-nicotine
T1 construct: endogenous in cells
Method: Determination of Interaction with Ganglion Receptors
(§1) The determination of the interaction of the compounds with ganglionic receptors was carried out in accordance with the techniques described in U.S. Pat. No. 5,597,919 to Dull et al. The maximal activation for individual compounds (Emax) was determined as a percentage of the maximal activation induced by (S)-(-)-nicotine. Reported Emax values represent the amount released relative to (S)-(-)-nicotine on a percentage basis.

[2] = target: T2, CNS nicotinic receptors (Rattus norvegicus, UniProt P09483+P12390); assay: Determination of binding to relevant receptor sites
T2 construct: from tissue
T2 sequence (P09483 31-630): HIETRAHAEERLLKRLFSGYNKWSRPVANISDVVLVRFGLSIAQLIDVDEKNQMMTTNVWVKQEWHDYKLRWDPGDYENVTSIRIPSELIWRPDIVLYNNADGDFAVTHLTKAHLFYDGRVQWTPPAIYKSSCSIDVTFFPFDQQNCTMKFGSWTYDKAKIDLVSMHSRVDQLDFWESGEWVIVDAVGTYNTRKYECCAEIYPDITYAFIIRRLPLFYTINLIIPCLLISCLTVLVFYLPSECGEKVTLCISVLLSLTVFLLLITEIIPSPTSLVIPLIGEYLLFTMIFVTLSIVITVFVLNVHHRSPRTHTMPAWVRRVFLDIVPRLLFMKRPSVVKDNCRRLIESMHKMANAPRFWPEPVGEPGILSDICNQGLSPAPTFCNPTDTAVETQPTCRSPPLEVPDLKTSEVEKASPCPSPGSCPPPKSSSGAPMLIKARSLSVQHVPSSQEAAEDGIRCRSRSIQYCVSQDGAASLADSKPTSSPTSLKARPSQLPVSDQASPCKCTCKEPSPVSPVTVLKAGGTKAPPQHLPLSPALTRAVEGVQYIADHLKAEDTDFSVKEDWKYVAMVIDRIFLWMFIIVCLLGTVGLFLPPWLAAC
T2 sequence (P12390 25-500): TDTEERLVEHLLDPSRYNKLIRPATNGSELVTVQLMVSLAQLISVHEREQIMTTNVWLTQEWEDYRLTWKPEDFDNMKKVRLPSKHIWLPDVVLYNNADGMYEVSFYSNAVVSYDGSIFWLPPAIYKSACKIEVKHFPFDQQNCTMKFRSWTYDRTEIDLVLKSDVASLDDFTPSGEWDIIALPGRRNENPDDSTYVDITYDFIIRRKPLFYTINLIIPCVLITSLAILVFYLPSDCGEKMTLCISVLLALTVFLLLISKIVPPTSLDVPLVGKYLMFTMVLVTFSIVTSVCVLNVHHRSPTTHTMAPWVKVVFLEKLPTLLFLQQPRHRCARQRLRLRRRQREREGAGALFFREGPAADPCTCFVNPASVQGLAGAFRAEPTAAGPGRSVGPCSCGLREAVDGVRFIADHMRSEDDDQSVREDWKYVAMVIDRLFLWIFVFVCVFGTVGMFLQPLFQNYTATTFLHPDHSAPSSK
Method: Determination of Binding to Relevant Receptor Sites
Binding of the compounds to relevant receptor sites was determined in accordance with the techniques described in U.S. Pat. No. 5,597,919 to Dull et al. Inhibition constants (Ki values), reported in nM, were calculated from the IC50 values using the method of Cheng et al., Biochem, Pharmacol. 22:3099 (1973).

[3] = test system: dopamine release; assay: Determination of receptor activation/inhibition: dopamine release; type: biochemical; settings: for Emax (dopamine release): amount released relative to (S)-(-)-nicotine or TMA
Method: Determination of Receptor Activation/Inhibition and Dopamine Release
Dopamine release was measured using the techniques described in U.S. Pat. No. 5,597,919 to Dull et al. Release is expressed as a percentage of release obtained with a concentration of (S)-(-)-nicotine resulting in maximal effects. Reported EC50 values are expressed in nM, and Emax values represent the amount released relative to (S)-(-)-nicotine or tetramethylammonium ion (TMA), on a percentage basis.
(§2) Reported IC50 values are expressed in nM and represent the concentration resulting in 50% inhibition of agonist induced receptor activation. Emax values represent the amount released relative to (S)-(-)-nicotine on a percentage basis.

[4] = target: T3, muscle-type receptors (Homo sapiens, UniProt P02708+P07510+Q07001); assay: Determination of interaction with muscle receptors; type: biochemical; settings: percentage of the maximal activation induced by (S)-(-)-nicotine
T3 construct: endogenous in cells
T3 sequence (P02708 21-457): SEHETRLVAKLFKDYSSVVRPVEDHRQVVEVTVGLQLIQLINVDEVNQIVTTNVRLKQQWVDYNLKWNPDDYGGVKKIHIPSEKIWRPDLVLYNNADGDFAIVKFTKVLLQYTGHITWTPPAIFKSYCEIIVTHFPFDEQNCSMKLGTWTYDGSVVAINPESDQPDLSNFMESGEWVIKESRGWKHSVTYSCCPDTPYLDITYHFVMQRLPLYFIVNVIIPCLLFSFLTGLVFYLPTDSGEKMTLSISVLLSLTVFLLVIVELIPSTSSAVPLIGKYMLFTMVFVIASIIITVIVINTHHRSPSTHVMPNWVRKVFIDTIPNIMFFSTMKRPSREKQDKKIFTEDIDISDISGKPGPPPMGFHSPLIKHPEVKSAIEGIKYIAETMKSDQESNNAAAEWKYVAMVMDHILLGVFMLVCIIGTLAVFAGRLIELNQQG
T3 sequence (P11230 24-501, further chain): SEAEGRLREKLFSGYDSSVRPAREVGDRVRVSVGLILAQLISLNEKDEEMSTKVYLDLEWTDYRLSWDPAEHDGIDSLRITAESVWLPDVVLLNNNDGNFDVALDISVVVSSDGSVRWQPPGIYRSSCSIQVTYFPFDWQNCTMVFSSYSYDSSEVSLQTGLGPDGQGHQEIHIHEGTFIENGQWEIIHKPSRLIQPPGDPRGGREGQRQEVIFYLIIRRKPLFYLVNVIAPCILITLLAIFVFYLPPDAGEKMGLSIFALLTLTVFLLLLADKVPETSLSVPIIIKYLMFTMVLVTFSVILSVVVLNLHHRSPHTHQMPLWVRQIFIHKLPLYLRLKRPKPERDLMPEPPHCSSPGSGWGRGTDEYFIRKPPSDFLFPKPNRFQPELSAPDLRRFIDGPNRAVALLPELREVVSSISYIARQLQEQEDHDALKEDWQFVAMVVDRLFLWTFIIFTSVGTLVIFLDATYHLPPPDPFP
T3 sequence (P07510 23-517): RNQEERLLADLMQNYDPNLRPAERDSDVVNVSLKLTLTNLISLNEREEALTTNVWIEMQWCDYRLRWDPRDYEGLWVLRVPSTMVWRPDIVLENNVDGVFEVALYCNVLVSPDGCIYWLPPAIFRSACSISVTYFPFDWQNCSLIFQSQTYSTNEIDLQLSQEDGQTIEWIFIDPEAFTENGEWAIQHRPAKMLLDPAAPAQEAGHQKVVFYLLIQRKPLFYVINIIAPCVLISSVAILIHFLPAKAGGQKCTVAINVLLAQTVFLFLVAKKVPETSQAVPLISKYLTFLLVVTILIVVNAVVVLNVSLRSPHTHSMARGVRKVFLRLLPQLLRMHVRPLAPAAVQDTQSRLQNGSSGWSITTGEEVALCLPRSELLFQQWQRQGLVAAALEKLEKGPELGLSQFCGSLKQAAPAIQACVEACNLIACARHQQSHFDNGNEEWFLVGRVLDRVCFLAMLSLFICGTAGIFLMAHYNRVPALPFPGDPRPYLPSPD
T3 sequence (Q07001 22-517): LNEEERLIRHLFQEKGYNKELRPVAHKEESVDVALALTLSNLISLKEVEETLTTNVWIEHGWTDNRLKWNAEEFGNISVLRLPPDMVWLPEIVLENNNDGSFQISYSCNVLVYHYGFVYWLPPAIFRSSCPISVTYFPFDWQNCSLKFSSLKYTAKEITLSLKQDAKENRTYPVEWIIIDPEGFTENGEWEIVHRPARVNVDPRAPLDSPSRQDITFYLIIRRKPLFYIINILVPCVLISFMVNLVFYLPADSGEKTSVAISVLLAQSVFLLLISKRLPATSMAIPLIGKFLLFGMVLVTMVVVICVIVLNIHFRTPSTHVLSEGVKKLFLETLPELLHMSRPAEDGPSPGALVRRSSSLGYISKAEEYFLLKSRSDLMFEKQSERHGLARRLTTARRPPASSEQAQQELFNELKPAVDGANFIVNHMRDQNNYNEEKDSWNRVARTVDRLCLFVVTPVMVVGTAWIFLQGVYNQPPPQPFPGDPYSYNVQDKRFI
Method: Determination of Interaction with Muscle Receptors
as §1, with “muscle” for “ganglionic”

[5] = target: T2, CNS nicotinic receptors; assay: Isotopic rubidium ion release; type: biochemical; settings: for Emax: read-out: Emax (rubidium ion release)
Method: Isotopic rubidium release was measured using the techniques described in Bencherif et al., JPET, 279: 1413-1421 (1996). Reported EC50 values are expressed in nM, and Emax values represent the amount of rubidium ion released relative to 300 uM tetranmethylammonium ion, on a percentage basis.
as §2

[6] = calculated from IC50 values using the method of Cheng et al., read-out: Ki
[7] = read-out: EC50 (rubidium ion release)

T1 sequence (P04757 26-499): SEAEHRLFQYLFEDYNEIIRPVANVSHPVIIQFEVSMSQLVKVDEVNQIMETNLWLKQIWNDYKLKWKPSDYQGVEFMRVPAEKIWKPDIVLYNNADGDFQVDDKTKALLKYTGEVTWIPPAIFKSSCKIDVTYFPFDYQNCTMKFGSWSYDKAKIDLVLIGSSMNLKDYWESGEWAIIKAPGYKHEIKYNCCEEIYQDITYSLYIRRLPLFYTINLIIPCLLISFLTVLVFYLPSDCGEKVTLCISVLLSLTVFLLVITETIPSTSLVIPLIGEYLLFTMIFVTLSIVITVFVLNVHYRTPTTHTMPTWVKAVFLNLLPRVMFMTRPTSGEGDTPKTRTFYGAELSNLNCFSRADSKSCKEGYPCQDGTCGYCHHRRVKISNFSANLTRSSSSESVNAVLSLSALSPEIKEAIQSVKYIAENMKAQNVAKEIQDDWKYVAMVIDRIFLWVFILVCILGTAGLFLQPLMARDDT
T1 sequence (P12392 21-495): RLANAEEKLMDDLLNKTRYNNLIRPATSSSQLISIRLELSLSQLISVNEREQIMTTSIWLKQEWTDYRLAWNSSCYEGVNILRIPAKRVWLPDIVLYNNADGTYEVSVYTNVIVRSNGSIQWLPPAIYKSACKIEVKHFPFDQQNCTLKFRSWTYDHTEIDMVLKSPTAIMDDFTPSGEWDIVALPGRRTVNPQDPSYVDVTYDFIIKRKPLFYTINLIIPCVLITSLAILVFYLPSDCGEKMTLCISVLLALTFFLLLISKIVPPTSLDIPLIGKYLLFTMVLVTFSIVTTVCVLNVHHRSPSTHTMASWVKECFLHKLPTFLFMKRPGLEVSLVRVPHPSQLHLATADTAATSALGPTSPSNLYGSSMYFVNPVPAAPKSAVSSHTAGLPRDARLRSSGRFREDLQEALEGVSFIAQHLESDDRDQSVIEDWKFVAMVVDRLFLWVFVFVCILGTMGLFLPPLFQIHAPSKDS

Row | Compound | Emax [1] | Ki [2, 6] | Emax (dopamine release) [3] | Emax [4] | EC50 [5, 7] | Emax [5] | Ki [2] | EC50 [5] | IC50 [5] | IC50 ([3]; 50% inhibition of agonist induced receptor activation)
1 | c1cncc(C2C3CC4CC(C3)CN2C4)c1 (stereo not drawn) [Sample No. 1, 1-aza-2-(3-pyridyl)-tricyclo[3.3.1.1^3,7]decane] | 27% | 15 nM | 0% | 21% | – | – | – | – | – | –
2 | Brc1cncc(C2C3CC4CC(C3)CN2C4)c1 (stereo not drawn) [Sample No. 2, 1-aza-2-[5-bromo(3-pyridyl)]tricyclo[3.3.1.1^3,7]decane] | 50% | – | 0% | 32% | > 100000 nM | 0% | 2 nM | – | – | –
3 | Cl.Cl.Cl.Nc1cncc(C2C3CC4CC(C3)CN2C4)c1 (stereo not drawn) [Sample No. 3, 1-aza-2-[5-amino-(3-pyridyl)]tricyclo[3.3.1.1^3,7]decane trihydrochloride] | 17% | 44 nM | 0% | 75% | – | 0% | – | > 100000 nM | – | –
4 | CCOc1cncc(C2C3CC4CC(C3)CN2C4)c1 (stereo not drawn) [Sample No. 4, 1-aza-2-[5-ethoxy-(3-pyridyl)]-tricyclo-[3.3.1.1^3,7]decane] | 0% | – | 0% | 22% | > 100000 nM | 0% | 1 nM | – | 630 nM | 846 nM
5 | CC(C)Oc1cncc(C2C3CC4CC(C3)CN2C4)c1 (stereo not drawn) [Sample No. 5, 1-aza-2-[5-isopropoxy-(3-pyridyl)]tricyclo[3.3.1.1^3,7]decane] | 7% | – | 0% | 114% | > 100000 nM | 0% | 24 nM | – | – | –
